From patent US8642656B2, “Calixarene-based peptide conformation mimetics, methods of use, and methods of making” (priority 2004, dated 2014)
pIC50: −log10 of the molar value.

Legend:
Solubility (Table 1) = format: physicochemical
E. coli J96 = assay: Bactericidal assay on J96; format: cell-based; details: for pIC50: read-out: Bacterial activity on J96 IC50 (conc)
Source text: Pseudomonas aeruginosa type 1 is a clinical, smooth strain isolate stereotyped by using the scheme of Homma et al., Japan. J. Exp. Med. 46, 329-336 (1976) and maintained in the lab by monthly transfer on blood agar plates. E. coli J96, IA2, and H5 are smooth strain, uropathogenic clinical isolates kindly maintained and provided by J. R. Johnson and described in Johnson et al., J. Infect. Disease 173, 920-926 (1996) for J96 and IA2 and in Johnson et al., J. Infect. Disease 173, 746-749 (1996) for H5. J5 is an E. coli rough strain initially referenced by G. R. Siber and discussed in Warren et al., Infect. Immunity 55, 1668-1673 (1987) and is analogous to the smooth strain E. coli 0111:B4 used in the BioWhittaker LAL endotoxin detection and quantitation kit described below. Gram-positive MN8 and MNHO are two patient isolates of Staphylococcus aureus, which were kindly provided by P. M. Schlievert and described in Bohach et al., Rev. Infect. Diseases 11, 75-82 (1989) for MNHO and in Schlievert et al., J. Infect. Diseases 147, 236-242 (1983) for MN8. All cultures are maintained on nutrient agar plates.
Pyrogen-free solutions were used throughout the assay. Log phase bacteria were obtained by transferring an overnight culture or scraping crystals off-85° C glycerol stocks of overnight cultures. Bacteria were washed and resuspended in 0.9% sodium chloride with adjustment to an optical density at 650 nm which yields 3×10^8 CFU/ml. Bacteria were then diluted 1:10 in 0.08 M citrate phosphate buffer, pH 7.0 (prepared by mixing 0.08 M citric acid with 0.08 M dibasic sodium phosphate). Bacteria (0.15 ml) were incubated with the test compound in a final volume of 1.0 ml of buffer. The assay was done in 17×100 polypropylene tubes in a reciprocal water bath shaker at 37° C for 30 minutes. Following this 30 minute (min) incubation. 10-fold dilutions were made in 0.9% sodium chloride. Dilutions were done to 10^−4 and 20 μl of each dilution was streaked across an agar plate. Gram-positive organisms were plated on nutrient agar plates containing 2% agar and Gram-negative organisms were plated on MacConkey agar (2%). Plates were incubated overnight at 37° C and counted the next morning. The dilution containing 10-100 bacteria was counted and the number multiplied by 50 to adjust all counts to the number bacteria killed per milliliter. Compound concentrations were converted to logarithm base ten and graphed. Bactericidal activity was determined by dose response where LD50 values were determined by best fits of a sigmoidal curve to the dose response data.

endothelial cell (EC) = assay: EC Proliferation Assay, [3H]thymidine incorporation (Example 36, Table 1); format: cell-based; details: read-out: EC proliferation IC50 (conc)
Protocol: Human umbilical vein derived EC(HUVEC) were harvested from normal human umbilical cords by perfusion with 0.125% trypsin/EDTA as described in Groenewegen et al., J. Exp. Med. 164, 131-143 (1986). For determination of quiescent EC phenotype isolated ECs were immediately fixed in 1% paraformaldehyde. Human microvascular ECs (MVECs) were isolated. ECs were cultured in fibronectin coated tissue culture flasks in culture medium (RPMJ-1640 with 20% human serum (HS), supplemented with 2 mM glutamine and 100 U/ml penicillin and 0.1 mg/ml streptomycin).
EC proliferation was measured using a [^3H]thymidine incorporation assay. ECs were seeded at 5000 cells/well in flatbottomed tissue culture plates and grown for 3 days, in the absence or presence of regulators, in culture medium. During the last 6 hours of the assay, the culture was pulsed with 0.5μ Ci [methyl-^3H]thymidine/well.

EC [1] = assay: EC % apoptosis (Table 1); format: cell-based, human
SCK = assay: Other cells, SCK (Table 1); format: cell-based
EC [2] = assay: EC % total cell death (Table 1); format: cell-based, human
MA148 = assay: Other cells, MA148 (Table 1); format: cell-based, human
Hemolysis (Table 1) = format: cell-based
Fibro = assay: Other cells, Fibro (Table 1); format: cell-based
[3] = test system: LPS from E. coli serotype 055:B5; assay: LPS neutralization assay (Limulus amoebocyte lysate, QCL-1000); format: biochemical; details: Table 3; errors estimated ±30%; read-out: IC50 values (μM) for LPS binding, E. coli 055:B5
Source text: (§1) The ability of compounds to neutralize endotoxin was detected in vitro by using the chromogenic QCL-1000 kit from BioWhittaker, Inc. (Walkersville, Md.), and as described in their protocol. This Limulus amoebocyte lysate (LAL) assay is quantitative for Gram negative bacterial endotoxin (lipopolysaccharide, LPS). In this assay compounds that are active inhibit the LPS-mediated activation of a proenzyme whose active form would release p-nitroaniline (pNA) from a colorless synthetic substrate producing a yellow color (pNA) whose absorption is monitored spectrophotometrically at 405-410 nm. The initial rate of enzyme activation is proportional to the concentration of endotoxin present.
(§2) Variants of LPS from six Gram negative bacteria were used: E. coli serotypes 0111:B4 (Combrex, Walkersville, Md.) and 055:B5 (Sigma, St. Louis, Mo.); Klebsiella pneumoniae (List Biologies, San Jose, Calif.); Pseudomonas aeruginosa (List Biologies, San Jose, Calif.); Salmonella typhimurium (List Biologies, San Jose, Calif.), and Serratia marcascens (List Biologies, San Jose, Calif.). The concentration of compound required to neutralize a given LPS and therefore to inhibit the Limulus amoebocyte lysate driven by 0.04 units of any given LPS was determined by dose response curves fit by using a standard sigmoidal function to determined the JC50 value for each lopomimetic compound. The 0.04 units corresponds to 0.01 ng LPS from E. coli serotype 055:B5, 0.01 ng LPS from E. coli serotype 0111:B4, 0.003 ng LPS from K. pneumoniae, 0.01 ng LPS from P. aeruginosa, 0.03 ng LPS from S. typhimurium, and 0.03 ng LPS from S. marcascens.

[4] = test system: LPS from E. coli serotype 0111:B4; assay: as above; format: biochemical; details: Table 3; errors estimated ±30%; read-out: IC50 values (μM) for LPS binding, E. coli 0111:B4
Source text: as §1, §2

LPS from P. aeruginosa = assay: as above; format: biochemical, Pseudomonas aeruginosa; details: Table 3; errors estimated ±30%; read-out: IC50 values (μM) for LPS binding, P.a.
Source text: as §1, §2

fibroblasts = assay: Proliferation of fibroblasts (general cell toxicity check); format: cell-based; details: read-out: concentration giving 50% growth inhibition, fibroblasts
B16F10 tumor cells = assay: Proliferation of B16F10 tumor cells; format: cell-based, murine; details: read-out: IC50 against B16F10 tumor cells
LPS from S. marcascens = assay: LPS neutralization assay (Limulus amoebocyte lysate, QCL-1000); format: biochemical, Serratia marcascens; details: Table 3; errors estimated ±30%; read-out: IC50 values (μM) for LPS binding, Serratia
Source text: as §1, §2

LPS from S. typhimurium = assay: as above; format: biochemical, Salmonella typhimurium; details: Table 3; errors estimated ±30%; read-out: IC50 values (μM) for LPS binding, Salmonella
Source text: as §1, §2

LPS from K. pneumoniae = assay: as above; format: biochemical, Klebsiella pneumoniae; details: Table 3; errors estimated ±30%; read-out: IC50 values (μM) for LPS binding, Klebsiella
Source text: as §1, §2

bFGF-stimulated HUVEC = assay: EC proliferation, [3H]-thymidine incorporation, bFGF-stimulated HUVEC (Example 48); format: cell-based, human; details: bFGF-stimulated HUVEC; highest dose tested 25 μM
Protocol: Proliferation is expressed as mean counts per minute (cpm) of quadruplicate cultures in three independent experiments (±SEM). […] Human umbilical vein derived EC (HUVEC) were harvested from normal human umbilical cords by perfusion with 0.125% trypsin/EDTA. Harvested HUVECs were cultured in gelatin coated tissue culture flasks and subcultured 1:3 once a week in culture medium (RPM1-1640 with 20% human serum (HS), supplemented with 2 mM glutamine and 100 U/mL penicillin and 0.1 mg/mL streptomycin). Statistical analysis was performed by using the Student's t-test.

HUVEC = assay: EC migration, wound healing assay; format: cell-based, human; details: 25 μM
Protocol: EC migration was measured in the wound healing assay. HUVEC were cultured in triplicate on a 1-mg/ml fibronectin coat in a 24-well tissue culture plate. Cells were grown for 3 days until confluence. When confluent, a wound was made in the well, using a blunt glass pipette. The medium was replaced with medium containing 10 ng/ml bFGF with or without 25 μM compound and at 0, 2, 4, 6, and 8 hours, the wound width was measured at four different predefined places. Photographs were made using an inverted microscope and a Contax 167 MT 35 mm camera.

[5] = test system: MA148 human ovarian carcinoma; assay: Proliferation of MA148 tumor cells; format: cell-based; details: read-out: IC50 against MA148 tumor cells

Which results are given for CC(C)(C)c1cc2c(O)c(c1)Cc1cc(C(C)(C)C)cc(c1OCCNC(=N)N)Cc1cc(C(C)(C)C)cc(c1O)Cc1cc(C(C)(C)C)cc(c1OCCNC(=N)N)C2?
Solubility (Solubility (Table 1); DMSO/H2O (30/70%), at >80° C., no infl. of pH 2 + 11): DMSO/H2O (30/70%) up to 30 mg/ml at >80° C., no infl. of pH 2 + 11; pIC50 (E. coli J96): < 5.42; pIC50 (endothelial cell (EC)): 5.08; EC % Apoptosis 25 μM (EC [1]): No effect; Other cells 25 μM, SCK (SCK): 100% 100% 100%; EC % total cell death (EC [2]): 65%; Other cells 25 μM, MA148 (MA148): 100% 100% 100%; Hemolysis (Hemolysis (Table 1); at 10^−6 M): 100% at 10^−6 M; Other cells 25 μM, Fibro (Fibro): 100% 100% 100%

For CCCc1cc2c(OCC(=O)NCCN(C)C)c(c1)Cc1cc(CCC)cc(c1OCC(=O)NCCN(C)C)Cc1cc(CCC)cc(c1OCC(=O)NCCN(C)C)Cc1cc(CCC)cc(c1OCC(=O)NCCN(C)C)C2 [Compound 11a], which “bactericidal activity (in words)” value (E. coli J96; in the micromolar range (Table 1)) is on record?
Its value is “reasonably good bactericidal activity”.

And the IC50 [3]?
The IC50 was 4.4 µM.

What about the IC50 [4] of the same compound?
Its IC50 is over 5 µM.

What about the IC50 (LPS from P. aeruginosa) of the same compound?
Its IC50 is over 5 µM.

What about the pIC50 (fibroblasts) of the same compound?
Its pIC50 is about 4.70.

And the pIC50 (B16F10 tumor cells)?
Its pIC50 is 4.82.

What about the IC50 (LPS from S. marcascens) of the same compound?
Its IC50 is over 5 µM.

And the IC50 (LPS from S. typhimurium)?
The IC50 was 4.1 µM.

And the IC50 (LPS from K. pneumoniae)?
Its IC50 is 0.08 µM.

What about the pIC50 (bFGF-stimulated HUVEC) of the same compound?
The pIC50 was under 4.60.

What about the “effect on EC migration, wound assay (in words)” value (HUVEC) of the same compound?
The value was “ineffective”.

And the pIC50 [5]?
Its pIC50 is 5.10.

What does the source list for CN(C)CCNC(=O)COc1c2cccc1Cc1cccc(c1OCC(=O)NCCN(C)C)Cc1cccc(c1OCC(=O)NCCN(C)C)Cc1cccc(c1OCC(=O)NCCN(C)C)C2 [drawing 7]?
Solubility (Solubility (Table 1); H2O, at pH <7.0, r.t.): H2O up to 30 mg/ml at pH <7.0, r.t.; pIC50 (E. coli J96): < 5.42; pIC50 (endothelial cell (EC)): 5.60; EC % Apoptosis 25 μM (EC [1]): No effect; Other cells 25 μM, SCK (SCK): 40%; EC % total cell death (EC [2]): No effect; Other cells 25 μM, MA148 (MA148): 80%; Hemolysis (Hemolysis (Table 1); at 10^−5 M): None at 10^−5 M; Other cells 25 μM, Fibro (Fibro): 0%
